Assay results reported in patent publication US20100306877A1, “FLAVONOID GLUCOSYLTRANSFERASE AND USE OF SAME” (International Flower Development Proprietary Limited, priority 2006, published 2010).

Tested on: protein encoded by cDNA contained in pSPB1123 (flavonol 3GT)
Test: Glucosyltransferase activity of the protein encoded by pSPB1123 cDNA expressed in yeast, product measured by HPLC
Assay type: biochemical, rose
Conditions: flavonol substrates compared
Text: In order to analyze the activity of a protein encoded by cDNA contained in pSPB1123, this cDNA was expressed in yeast cells. Yeast expression vector pYE22m (Plant Cell Physiol. (1996) 37, 711-716) was used to express the cDNA in yeast. A fragment obtained by digested pSPB1123 cDNA with EcoRI and KpnI was inserted into an EcoRI and KpnI recognition sequence of pYE22m to obtain a yeast expression vector. This vector was then inserted into yeast strain G1315 followed by measurement of activity of the protein encoded by pSPB1123 according to the method described on pp. 114-118 of Shinseibutsugaku Jikken (New Biological Experiment) Manual 3 (Kagaku-Dojin Publishing Co., Inc.). The method for measuring activity and the conditions for measuring a product by HPLC were the same as the method and the like described in Plant Physiology (2003) 132, 1652-1663. Furthermore, anthocyanin (cyanidin, pelargonidin), cyanidin 3-glucoside (cyanidin 3G), cyanidin 3,5-diglucoside (cyanidin 3,5G), flavonol (quercetin, kaempferol) and flavone (apigenin, luteolin) were used as substrates for measurement of the activity.

| substrate preference | Compound |
| --- | --- |
| prefer quercetin to kaempferol | O=c1c(O)c(-c2ccc(O)c(O)c2)oc2cc(O)cc(O)c12 [quercetin] |
| prefer quercetin to kaempferol | O=c1c(O)c(-c2ccc(O)cc2)oc2cc(O)cc(O)c12 [kaempferol] |
